According to US8399676B2, “Piperidine derivatives” (Hoffman-La Roche Inc., priority 2009, dated 2013):
Where a name gives a salt, the structure may show the parent alone.

The compounds below were run against T1, human HSL (Homo sapiens, UniProt Q05469) (assay: Human Hormone-Sensitive Lipase (HSL) enzyme inhibition assay (colorimetric, DMPT substrate)). Settings: read-out: HSL hum IC50.
T1 construct: generate a full length human HSL ORF with a 3′-His6 tag; His6 (C); made in house; host or cells: High 5 insect cells (baculovirus, pFast-BAC)
T1 sequence (Q05469 1-1076): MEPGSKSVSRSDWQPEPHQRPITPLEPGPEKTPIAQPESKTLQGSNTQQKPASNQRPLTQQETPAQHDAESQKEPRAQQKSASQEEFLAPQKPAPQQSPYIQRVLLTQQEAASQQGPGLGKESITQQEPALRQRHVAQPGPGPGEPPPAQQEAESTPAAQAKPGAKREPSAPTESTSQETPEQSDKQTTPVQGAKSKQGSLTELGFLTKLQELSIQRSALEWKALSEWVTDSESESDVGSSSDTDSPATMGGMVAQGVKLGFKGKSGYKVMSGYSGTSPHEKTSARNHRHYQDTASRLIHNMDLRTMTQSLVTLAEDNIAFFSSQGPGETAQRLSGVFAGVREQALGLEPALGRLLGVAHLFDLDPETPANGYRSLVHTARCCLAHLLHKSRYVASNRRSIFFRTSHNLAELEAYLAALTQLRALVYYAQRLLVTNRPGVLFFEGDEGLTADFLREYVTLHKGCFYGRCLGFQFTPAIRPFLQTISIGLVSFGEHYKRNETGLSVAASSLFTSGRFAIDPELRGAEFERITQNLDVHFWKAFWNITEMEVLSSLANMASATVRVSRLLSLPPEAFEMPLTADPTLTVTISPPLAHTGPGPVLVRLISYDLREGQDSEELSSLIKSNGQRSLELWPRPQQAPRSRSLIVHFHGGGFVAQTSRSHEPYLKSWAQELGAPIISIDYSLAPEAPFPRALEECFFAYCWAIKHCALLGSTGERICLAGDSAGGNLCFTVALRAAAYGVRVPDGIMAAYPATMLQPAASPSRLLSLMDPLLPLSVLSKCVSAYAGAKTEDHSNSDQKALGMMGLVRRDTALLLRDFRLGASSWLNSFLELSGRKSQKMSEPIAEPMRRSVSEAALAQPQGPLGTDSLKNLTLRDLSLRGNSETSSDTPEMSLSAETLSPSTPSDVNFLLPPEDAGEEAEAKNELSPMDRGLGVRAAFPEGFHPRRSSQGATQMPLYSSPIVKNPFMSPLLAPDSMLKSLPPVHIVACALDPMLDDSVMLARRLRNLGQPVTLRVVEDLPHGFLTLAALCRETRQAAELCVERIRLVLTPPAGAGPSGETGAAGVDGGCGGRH
Format: biochemical
Procedure, shortened: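 Full-length human HSL carrying a C-terminal His6 tag was expressed in High 5 insect cells via baculovirus and purified on Ni-NTA. Compounds from 3-fold DMSO series were mixed with 1.5 mM DMPT substrate suspension in 100 mM MOPS pH 7.2 with 0.2 mg/ml fatty acid-free BSA, then enzyme (15 ug/ml) was added for 20 minutes at 37 °C. Released thiol was detected with DTNB plus SDS/Triton X-100 (15 minutes, room temperature) at 405 nm.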

Compound | IC50
CCc1ccc(NC(=O)C2(N)CCN(Cc3ccccc3Cl)CC2)cc1 [Example 154, 4-Amino-1-(2-chloro-benzyl)-piperidine-4-carboxylic acid (4-ethyl-phenyl)-amide] | 110 nM
CCc1ccc(NC(=O)C2(N)CCN(S(=O)(=O)c3c(Cl)cccc3Cl)CC2)cc1 [Example 150, 4-Amino-1-(2,6-dichloro-benzenesulfonyl)-piperidine-4-carboxylic acid (4-ethyl-phenyl)-amide] | 240 nM
Cc1ccc(S(=O)(=O)N2CCC(O)(C(=O)Nc3ccc(C(C)(C)C)cc3)CC2)cc1 [Example 16, 4-Hydroxy-1-(toluene-4-sulfonyl)-piperidine-4-carboxylic acid (4-tert-butyl-phenyl)-amide] | 200 nM
O=C(CC1CCCC1)N1CCC(O)(C(=O)Nc2ccc(OC(F)(F)F)cc2)CC1 [Example 53, 1-(2-Cyclopentyl-acetyl)-4-hydroxy-piperidine-4-carboxylic acid (4-trifluoromethoxy-phenyl)-amide] | 790 nM
O=C(Nc1ccc(OC(F)(F)F)cc1)C1(O)CCN(S(=O)(=O)c2cccs2)CC1 [Example 57, 4-Hydroxy-1-(thiophene-2-sulfonyl)-piperidine-4-carboxylic acid (4-trifluoromethoxy-phenyl)-amide] | 330 nM
C=Cc1ccc(NC(=O)C2(N)CCN(S(=O)(=O)c3ccccc3Cl)CC2)cc1 [Example 100, 4-Amino-1-(2-chloro-benzenesulfonyl)-piperidine-4-carboxylic acid (4-vinyl-phenyl)-amide] | 140 nM
CCc1ccc(NC(=O)C2(N)CCN(C(c3ccccc3)c3ccccc3)CC2)cc1 [Example 159, 4-Amino-1-benzhydryl-piperidine-4-carboxylic acid (4-ethyl-phenyl)-amide] | 150 nM
NC1(C(=O)Nc2ccc(Cl)cc2)CCN(S(=O)(=O)c2ccccc2Cl)CC1 [Example 95, 4-Amino-1-(2-chloro-benzenesulfonyl)-piperidine-4-carboxylic acid (4-chloro-phenyl)-amide] | 190 nM
CC(C)c1ccc(NC(=O)C2(O)CCN(Cc3ccc(F)cc3)CC2)cc1 [Example 2, 1-(4-Fluoro-benzyl)-4-hydroxy-piperidine-4-carboxylic acid (4-isopropyl-phenyl)-amide] | 270 nM
CCCCc1ccc(NC(=O)C2(N)CCN(S(=O)(=O)c3ccccc3Cl)CC2)cc1 [Example 104, 4-Amino-1-(2-chloro-benzenesulfonyl)-piperidine-4-carboxylic acid (4-butyl-phenyl)-amide] | 60 nM
CN(C(=O)C1(O)CCN(S(=O)(=O)c2cccs2)CC1)c1ccc(OC(F)(F)F)cc1 [Example 66, 4-Hydroxy-1-(thiophene-2-sulfonyl)-piperidine-4-carboxylic acid methyl-(4-trifluoromethoxy-phenyl)-amide] | 200 nM
Cc1ccccc1S(=O)(=O)N1CCC(N)(C(=O)Nc2ccc(C(C)C)cc2)CC1 [Example 119, 4-Amino-1-(toluene-2-sulfonyl)-piperidine-4-carboxylic acid (4-isopropyl-phenyl)-amide] | 60 nM
CC(C)c1ccc(NC(=O)C2(N)CCN(C(=O)c3ccc(F)cc3)CC2)cc1 [Example 127, 4-Amino-1-(4-fluoro-benzoyl)-piperidine-4-carboxylic acid (4-isopropyl-phenyl)-amide] | 490 nM
CCc1ccc(NC(=O)C2(N)CCN(S(=O)(=O)c3ccccc3S(C)(=O)=O)CC2)cc1 [Example 136, 4-Amino-1-(2-methanesulfonyl-benzenesulfonyl)-piperidine-4-carboxylic acid (4-ethyl-phenyl)-amide] | 610 nM
CC(C)Oc1ccc(NC(=O)C2(O)CCN(S(=O)(=O)c3ccccc3Cl)CC2)cc1 [Example 13, 1-(2-Chloro-benzenesulfonyl)-4-hydroxy-piperidine-4-carboxylic acid (4-isopropoxy-phenyl)-amide] | 190 nM
CC(C)(C)CS(=O)(=O)N1CCC(O)(C(=O)Nc2ccc(OC(F)(F)F)cc2)CC1 [Example 55, 1-(2,2-Dimethyl-propane-1-sulfonyl)-4-hydroxy-piperidine-4-carboxylic acid (4-trifluoromethoxy-phenyl)-amide] | 330 nM
CCc1ccc(NC(=O)C2(N)CCN(Cc3ccc(C(C)C)cc3)CC2)cc1 [Example 158, 4-Amino-1-(4-isopropyl-benzyl)-piperidine-4-carboxylic acid (4-ethyl-phenyl)-amide] | 460 nM
CC(C)c1ccc(NC(=O)C2(N)CCN(C(=O)OCc3ccccc3)CC2)cc1 [Example 82, 4-Amino-4-(4-isopropyl-phenylcarbamoyl)-piperidine-1-carboxylic acid benzyl ester; hydrochloride] | 320 nM
CCc1ccc(NC(=O)C2(N)CCN(Cc3ccccc3)CC2)cc1 [Example 151, 4-Amino-1-benzyl-piperidine-4-carboxylic acid (4-ethyl-phenyl)-amide] | 540 nM
CC(C)c1ccc(NC(=O)C2(N)CCN(C(=O)Nc3ccc(F)cc3)CC2)cc1 [Example 106, 4-Amino-piperidine-1,4-dicarboxylic acid 1-[(4-fluoro-phenyl)-amide]-4-[(4-isopropyl-phenyl)-amide]; hydrochloride] | 210 nM
CC(C)(C)c1ccc(NC(=O)C2(O)CCN(Cc3ccccc3OC(F)(F)F)CC2)cc1 [Example 48, 4-Hydroxy-1-(2-trifluoromethoxy-benzyl)-piperidine-4-carboxylic acid (4-tert-butyl-phenyl)-amide] | 110 nM
CC(C)CS(=O)(=O)N1CCC(N)(C(=O)Nc2ccc(C(C)C)cc2)CC1 [Example 120, 4-Amino-1-(2-methyl-propane-1-sulfonyl)-piperidine-4-carboxylic acid (4-isopropyl-phenyl)-amide; hydrochloride] | 230 nM
CC(C)c1ccc(NC(=O)C2(N)CCN(S(=O)(=O)c3ccccc3F)CC2)cc1 [Example 118, 4-Amino-1-(2-fluoro-benzenesulfonyl)-piperidine-4-carboxylic acid (4-isopropyl-phenyl)-amide] | 40 nM
CCc1ccc(NC(=O)C2(N)CCN(Cc3ccccc3OC(F)(F)F)CC2)cc1 [Example 156, 4-Amino-1-(2-trifluoromethoxy-benzyl)-piperidine-4-carboxylic acid (4-ethyl-phenyl)-amide] | 80 nM
CC(C)c1ccc(NC(=O)C2(N)CCN(C(=O)c3ccccc3OC(F)(F)F)CC2)cc1 [Example 123, 4-Amino-1-(2-trifluoromethoxy-benzoyl)-piperidine-4-carboxylic acid (4-isopropyl-phenyl)-amide] | 200 nM
CCc1ccc(NC(=O)C2(N)CCN(S(=O)(=O)c3ccc(OC)cc3)CC2)cc1 [Example 139, 4-Amino-1-(4-methoxy-benzenesulfonyl)-piperidine-4-carboxylic acid (4-ethyl-phenyl)-amide] | 80 nM
CC(C)c1ccc(NC(=O)C2(N)CCN(C(=O)c3ccc(C(F)(F)F)cc3)CC2)cc1 [Example 126, 4-Amino-1-(4-trifluoromethyl-benzoyl)-piperidine-4-carboxylic acid (4-isopropyl-phenyl)-amide] | 250 nM
CCc1ccc(NC(=O)C2(N)CCN(S(=O)(=O)c3ccccc3OC)CC2)cc1 [Example 137, 4-Amino-1-(2-methoxy-benzenesulfonyl)-piperidine-4-carboxylic acid (4-ethyl-phenyl)-amide] | 140 nM
CC(C)c1ccc(NC(=O)C2(N)CCN(C(=O)Nc3ccc(OC(F)(F)F)cc3)CC2)cc1 [Example 85, 4-Amino-piperidine-1,4-dicarboxylic acid 4-[(4-isopropyl-phenyl)-amide]1-[(4-trifluoromethoxy-phenyl)-amide]; hydrochloride] | 120 nM
